Where two headings read alike, the source gives them in different places.
Experiments:
α-Glucosidase (AGS) [1] = target: T1, α-Glucosidase (AGS) (Saccharomyces cerevisiae, UniProt P53341); assay: Inhibition kinetics analysis (Lineweaver–Burk plots and secondary plots); assay type: biochemical; settings: for inhibition type against AGS: Lineweaver–Burk plots
Experimental: Although several 2,5-DKP containing cyclodipeptides have been reported to inhibit the activity of AGS to different extents, little is known on the inhibition kinetics of these inhibitors. Herein, the inhibition kinetic mechanisms of 3, 8, 9, 11, 14, 16, and 17 against AGS were analyzed using the Lineweaver–Burk plots. The inhibition constants Ki and Ki’ of the inhibitors were calculated by secondary plots of “slope versus [I]” and “Y-intercept versus [I]”, respectively. […] This postulation was reinforced by the varied Km/Vmax values which were not in accordance with uncompetitive inhibition. However, the replots of the slope and y-intercept versus the concentration of 14 and 17 were not linearly fitted, which limited the application of Equations (3) and (4). […] It was interesting that seven cyclodipeptide congeners tended to inhibit the activity of AGS in four different manners, which was proposed to be caused by different substitutions on the 2,5-DKP moiety.
The mode of inhibition was determined by the Lineweaver–Burk plot using GraphPad Prism 8.0 software. The Km and Vmax values were obtained from the slope and y-axis intercept of the Lineweaver–Burk plot based on Equations (1) and (2):(1) Vmax=1/Y-intercept (2) Km=slope× Vmax
The Ki and Ki’ values were calculated by secondary plotting of the slope and y-intercept on the Lineweaver–Burk plot versus the inhibitor [I] based on Equations (3) and (4):(3) Slope=Km/Vmax+Km[I]/VmaxKi (4) Y-intercept=1/Vmax+[I]/VmaxKi^′

[2] = In vitro cytotoxicity MTT assay; assay type: cell-based; settings: human
Experimental: To preliminarily evaluate the safety of the AGS inhibitors, the in vitro cytotoxicity of 3, 8, 9, 11, 14, 16, and 17 toward human normal hepatocyte (LO2) cells was tested by MTT assay. […] Since cancer and diabetes are linked, these compounds need to be evaluated for cytotoxicity against a panel of cancer cell lines to assess their safety profile at least in vitro in future studies.
The LO2 cell line was cultured in a 1640 medium supplemented with 10% fetal bovine serum, 100 U/mL of penicillin, and 0.1 mg/mL of streptomycin in a humidified incubator with a 5% CO2 atmosphere at 37 °C. The cells were seeded in 96-well plates at a density of 3 × 10^3 cells per well. After 12 h, the medium in the wells was replaced by 100 µL of fresh medium containing drugs of six different concentrations. After incubation for another 48 h, the medium was removed and the fresh medium containing 10 µL of MTT (5 mg/mL) were added to each well and incubated for 4 h. Then, the medium was replaced by 100 µL of DMSO to dissolve the formazan crystals. OD570 was detected on a microplate reader. Parallel triplicate replication was performed for each dose, and the IC50 values were calculated.

α-Glucosidase (AGS) [3] = target: T1, α-Glucosidase (AGS); assay: biochemical; settings: read-out: AGS inhibitory activity IC50
Experimental: The AGS inhibitory activity was evaluated following the methods reported in the literature.

[4] = inhibitor concentration 0.04 mM
[5] = inhibitor concentration 0.06 mM
[6] = inhibitor concentration 0.08 mM
[7] = secondary plot of Y-intercept versus [I], binding to AGS-substrate complex, read-out: Ki
[8] = inhibitor concentration 0.05 mM
[9] = inhibitor concentration 0.07 mM
[10] = inhibitor concentration 0.09 mM
[11] = inhibitor concentration 0.10 mM

T1 sequence (P53341 whole entry): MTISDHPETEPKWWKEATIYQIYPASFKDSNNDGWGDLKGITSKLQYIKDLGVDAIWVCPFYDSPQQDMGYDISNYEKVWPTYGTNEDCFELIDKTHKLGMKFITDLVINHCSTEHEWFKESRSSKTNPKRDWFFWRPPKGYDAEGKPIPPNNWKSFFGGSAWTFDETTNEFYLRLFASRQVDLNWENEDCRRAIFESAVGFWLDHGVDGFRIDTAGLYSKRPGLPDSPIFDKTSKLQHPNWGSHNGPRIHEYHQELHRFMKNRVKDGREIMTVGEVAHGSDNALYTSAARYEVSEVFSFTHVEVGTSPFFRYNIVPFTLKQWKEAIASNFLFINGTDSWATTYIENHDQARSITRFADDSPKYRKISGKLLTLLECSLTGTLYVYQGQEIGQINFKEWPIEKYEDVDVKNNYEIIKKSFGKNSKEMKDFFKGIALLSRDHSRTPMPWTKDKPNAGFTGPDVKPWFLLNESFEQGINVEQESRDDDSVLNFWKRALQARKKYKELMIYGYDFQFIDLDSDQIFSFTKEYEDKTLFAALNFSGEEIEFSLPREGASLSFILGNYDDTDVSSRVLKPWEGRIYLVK

COC1CCC=C(C)C(=O)Nc2cc(O)cc(c2)CC(C)CC(OC)C(O)C(C)C=C(C)C1OC(N)=O (stereo not shown) [Compound 3, autolytimycin]
inhibition type against AGS (α-Glucosidase (AGS) [1]): non-competitive inhibitors | Vmax (α-Glucosidase (AGS) [1]; [4]): 0.86 ± 0.03 µM/min | Vmax (α-Glucosidase (AGS) [1]; [5]): 0.67 ± 0.04 µM/min | Vmax (α-Glucosidase (AGS) [1]; [6]): 0.46 ± 0.03 µM/min | Ki (α-Glucosidase (AGS) [1]; [7]): 53.10 µM | Ki (α-Glucosidase (AGS) [1]; secondary plot of slope versus [I], binding to free AGS, read-out: Ki): 49.2 µM | IC50 at 48 h [2]: > 100 µM | IC50 (α-Glucosidase (AGS) [3]): 35.8 ± 0.4 µM

O=C1N[C@@H](Cc2c[nH]c3ccccc23)C(=O)N2CCC[C@@H]12 [Compound 8, cyclo(L-Pro-L-Trp)]
Ki (α-Glucosidase (AGS) [1]): 43.9 µM | inhibition type against AGS (α-Glucosidase (AGS) [1]): non-competitive inhibitors | Vmax (α-Glucosidase (AGS) [1]; inhibitor concentration 0.02 mM): 0.85 ± 0.05 µM/min | Vmax (α-Glucosidase (AGS) [1]; inhibitor concentration 0.03 mM): 0.66 ± 0.03 µM/min | Vmax (α-Glucosidase (AGS) [1]; [6]): 0.41 ± 0.03 µM/min | Ki (α-Glucosidase (AGS) [1]; [7]): 46.28 µM | IC50 at 48 h ([2]; LO2 cells (human normal hepatocyte cell line), MTT, 48 h incubation, read-out: Cytotoxicity IC50 against LO2 cells): > 100 µM | IC50 (α-Glucosidase (AGS) [3]): 53.8 ± 1.88 µM

O=C1N[C@@H](Cc2c[nH]c3ccccc23)C(=O)N[C@H]1CO [Compound 9, cyclo(L-Ser-L-Trp)]
Ki (α-Glucosidase (AGS) [1]): 149 µM | inhibition type against AGS (α-Glucosidase (AGS) [1]): mixed-type manner | Vmax (α-Glucosidase (AGS) [1]; [8]): 1.33 ± 0.17 µM/min | Vmax (α-Glucosidase (AGS) [1]; [6]): 1.11 ± 0.14 µM/min | Vmax (α-Glucosidase (AGS) [1]; inhibitor concentration 0.20 mM): 0.89 ± 0.22 µM/min | Ki (α-Glucosidase (AGS) [1]; [7]): 238.78 µM | IC50 at 48 h [2]: > 100 µM | IC50 (α-Glucosidase (AGS) [3]): 164 ± 15.5 µM

CC[C@H](C)[C@@H]1NC(=O)[C@H](Cc2ccc(O)cc2)NC1=O [Compound 11, cyclo(L-Ile-L-Tyr)]
Ki (α-Glucosidase (AGS) [1]): 95.5 µM | inhibition type against AGS (α-Glucosidase (AGS) [1]): mixed-type manner | Vmax (α-Glucosidase (AGS) [1]; [5]): 0.98 ± 0.05 µM/min | Vmax (α-Glucosidase (AGS) [1]; [9]): 0.94 ± 0.02 µM/min | Vmax (α-Glucosidase (AGS) [1]; [10]): 0.90 ± 0.05 µM/min | Ki (α-Glucosidase (AGS) [1]; [7]): 531.53 µM | IC50 at 48 h [2]: > 100 µM | IC50 (α-Glucosidase (AGS) [3]): 101 ± 2.52 µM

O=C1NC(Cc2ccccc2)C(=O)NC1CO [Compound 14, cyclo(L-Ser-L-Phe)]
inhibition type against AGS (α-Glucosidase (AGS) [1]): competitive inhibitor | Vmax (α-Glucosidase (AGS) [1]; [4]): 0.81 ± 0.06 µM/min | Vmax (α-Glucosidase (AGS) [1]; [10]): 0.76 ± 0.04 µM/min | Vmax (α-Glucosidase (AGS) [1]; [11]): 0.83 ± 0.18 µM/min | IC50 at 48 h [2]: > 100 µM | IC50 (α-Glucosidase (AGS) [3]): 62.2 ± 0.11 µM

CC[C@H](C)[C@@H]1NC(=O)[C@H](CC(C)C)NC1=O [Compound 16, cyclo(L-Leu-L-Ile)]
Ki (α-Glucosidase (AGS) [1]): 59.8 µM | inhibition type against AGS (α-Glucosidase (AGS) [1]): mixed-type manner | Vmax (α-Glucosidase (AGS) [1]; [8]): 1.07 ± 0.13 µM/min | Vmax (α-Glucosidase (AGS) [1]; [6]): 0.86 ± 0.11 µM/min | Vmax (α-Glucosidase (AGS) [1]; [11]): 0.74 ± 0.07 µM/min | Ki (α-Glucosidase (AGS) [1]; [7]): 78.89 µM | IC50 at 48 h [2]: > 100 µM | IC50 (α-Glucosidase (AGS) [3]): 74 ± 1.25 µM

C[C@@H]1NC(=O)[C@@H]2CCCN2C1=O [Compound 17, cyclo(L-Ala-L-Pro)]
inhibition type against AGS (α-Glucosidase (AGS) [1]): non-competitive and uncompetitive mixed-type of inhibition | Vmax (α-Glucosidase (AGS) [1]; [5]): 0.79 ± 0.02 µM/min | Vmax (α-Glucosidase (AGS) [1]; [9]): 0.66 ± 0.03 µM/min | Vmax (α-Glucosidase (AGS) [1]; [10]): 0.47 ± 0.01 µM/min | IC50 at 48 h [2]: > 100 µM | IC50 (α-Glucosidase (AGS) [3]): 56.75 ± 0.32 µM

From publication PMC10180428, “α-Glucosidase Inhibitors from Two Mangrove-Derived Actinomycetes” (Molecules, 2023)
